Source: patent US20190076507A1, “Artificial Red Blood Cell Having Ability to Inhibit Conversion of Hemoglobin into Methemoglobin” (Public University Corporation Nara Medical University, priority 2016, published 2019)

What was measured:
Format in all cases: biochemical
[1] = Catalase (pseudo CAT) activity from change of absorbance at 230 nm of H2O2
Experimental: (§1) The activity of NADH-cytochrome b5 reductase in the above-mentioned purified and concentrated HbCO solution was determined as NADH-ferricyanide reductase activity according to Beutler, E. above. Diluted Hb samples comprising the enzyme to be measured is mixed with a buffer comprising NADH. The mixed solutions were left standing for 10 minutes at 30° C., and then potassium ferricyanide (K3Fe (CN)6), the enzyme substrate, was added to start the enzyme reaction. The decrease of difference of absorbance at 340 nm, a characteristic absorption of NADH, per minute was measured to determine activity unit E (IU/gHb). […] It was reasoned that the heat-labile NADH-cytochrome b5 reductase was eliminated as denatured and insoluble, or denatured and inactivated, due to the introduction of heat treatment during the purifying step. In addition, activities of NADPH metHb reductase and NADPH diaphorase, which correspond to NADPH-flavin reductase are also determined by the above-mentioned methods according to Beutler, E. Diluted blood samples comprising the enzyme to be measured is mixed with a buffer comprising NADPH. The mixed solutions were left standing for 10 minutes at 37° C., and then methylene bleu (MeBl), the enzyme substrate, was added to start the enzyme reaction. The decrease of difference of absorbance at 340 nm, a characteristic absorption of NADPH, per minute was measured to determine activity unit E (IU/gHb). […] Catalase activity of the purified HbCO solution was determined from the change of the absorbance at 230 nm, the absorption wavelength of H2O2, according to Beutler, E. (RED CELL METABOLISM: A MANUAL OF BIOCHEMICAL METHOD, Grune &Stratton, Inc. pp. 105-106 (1987)). […] Pyrogallol was used for measurement of SOD activity (Marklund, S. and Marklund, G., Eur. J. Biochem. 47, 469-474 (1974); Roth, E. F. Jr. and Gilbert, H. S., Anal. Biochem. 137, 50-53(1984)). Pyrogallol is oxidized with oxygen to generate superoxide, and further reacted to generate a yellow dye with absorbance at 420 nm. SOD inhibits this reaction. SOD enzyme activity was determined based on this inhibitory activity. Analyzed specimens were solutions of purified HbO2, HbCO, metHb and solutions thereof further comprising NADH or L-tyrosine In addition, enzyme activity of crude SFHb solution was also determined as a control. […] When NADH and HbO2 were coexisted, however, high CAT and SOD pseudo activities (Table 1). […] The pseudo activity was detected when NADH alone was present, however, the activity was about a tenth ( 1/10) compared with when HbO2 was coexisted. […] There were results showing that this pseudo activity increased as more NADH was added.

[2] = SOD (pseudo SOD) activity, pyrogallol method; settings: ratio
Experimental: as §1

HbO2 [3] = molecular target: T1, HbO2 (Homo sapiens, UniProt P68871+P69905); test: Screening of suppressing effect of compounds against autoxidation of HbO2; settings: HbO2 10 g/dL, antioxidant 1 g/dL, 37° C., 24 hours
T1 construct: The Hb released by hemolysis was filtered and collected, with the red blood cell membrane components (stroma) separated and removed; from tissue; host or cells: human red blood cells (expired donated blood); heat-treated, nanofiltered, purified and concentrated HbCO, photoconverted to HbO2
Experimental: NADH was purchased from Oriental Yeast Co. Ltd., and all the rest were purchased from Sigma-Aldrich (St. Louis, Mo., USA). HbCO solution was transferred to an eggplant flask and irradiated with visible light (halogen lamp; LPL Videeoligtvl-302, LPLCO. Ltd., Tokyo, Japan) under oxygen gas flow to convert to HbO2. […] The conversion ratios to metHb were determined from the visible absorption spectrum. The measurement of spectrum between 300 nm to 500 nm was conducted using a spectrophotometer (V-660, Japan Spectroscopic Company (JASCO)) mounted with a device to control the light scattering to the minimum (an integrating sphere). The atmosphere inside of a Thunberg cuvette was replaced with nitrogen gas and the conversion ratios to metHb were determined from the ratios of absorbance at 405 nm (λmax of metHb) and 430 nm (λmax of deoxyHb).

HbO2 [4] = molecular target: T1, HbO2; test: Oxidant-promoted metHb conversion in non-encapsulated HbO2 solution with NADH (absorbance at 630 nm); settings: 10 and 40 minutes, vs no NADH
Experimental: To examine the suppression of Hb oxidation by encapsulation of NADH further in detail, similar experiments were carried out for Hb solution which was not encapsulated.
(1) First, metHb conversion supplemented with NOC7 was studied. To a cuvette with an optical path length of 1 cm, 3 mL of phosphate buffered saline, 30 μL of HbO2 solution (1.5 mM), 30 μL of NADH solution (1.5 mM) and 30 μL of NOC (1.5 mM in PBS) were mixed and the change of absorbance at 630 nm, the absorption wavelength of metHb, at 25° C. was immediately monitored for 10 minutes and for 40 minutes (FIGS. 6A and 6B). In the graphs of FIGS. 6A and 6B, the absorbance at 630 nm was put on the vertical axis and incubation time (second) was put on the horizontal axis. The three lines in FIG. 6A represent a change over time of metHb when the solution comprising HbO2 and NADH was supplemented with NOC7 (HbO2+NADH+NOC7), a change over time of metHb when the solution comprising HbO2 but not NADH was supplemented with NOC7 (HbO2+NOC7) and a change over time of metHb when the solution comprising HbO2 was neither supplemented with NADH nor NOC7 (HbO2+water). […] To a cuvette with an optical path length of 1 cm, 3 mL of PBS, 30 μL of HbO2 solution (1.5 mM), 30 μL of NADH solution (1.5 mM) and 30 μL of H2O2 (1.5 mM) were mixed and the change of absorbance at 630 nm at 25° C. was immediately monitored for 10 minutes and for 40 minutes (FIGS. 7A and 7B). In the graphs of FIGS. 7A and 7B, the absorbance at 630 nm was put on the vertical axis and incubation time (second) was put on the horizontal axis. […] To a cuvette with an optical path length of 1 cm, 3 mL of PBS, 30 μL of HbO2 solution (1.5 mM), 30 μL of NADH solution (1.5 mM) and 30 μL of NaNO2 (1.5 mM in PBS) were mixed and the change of absorbance at 630 nm at 25° C. was immediately monitored for 10 minutes and for 40 minutes (FIGS. 8A and […]). In the graphs of FIGS. 8A and […], the absorbance at 630 nm was put on the vertical axis and incubation time (second) was put on the horizontal axis. […]

[5] = molecular target: T2, NADH-cytochrome b5 reductase (Homo sapiens, UniProt P00387); test: NADH-cytochrome b5 reductase activity determined as NADH-ferricyanide reductase activity; settings: 30° C., potassium ferricyanide substrate, decrease of absorbance at 340 nm
T2 construct: from tissue; host or cells: human red blood cells (expired donated blood), crude stroma-free haemolysate (SFHb)
T2 sequence (P00387 1-278 isoform P00387-2): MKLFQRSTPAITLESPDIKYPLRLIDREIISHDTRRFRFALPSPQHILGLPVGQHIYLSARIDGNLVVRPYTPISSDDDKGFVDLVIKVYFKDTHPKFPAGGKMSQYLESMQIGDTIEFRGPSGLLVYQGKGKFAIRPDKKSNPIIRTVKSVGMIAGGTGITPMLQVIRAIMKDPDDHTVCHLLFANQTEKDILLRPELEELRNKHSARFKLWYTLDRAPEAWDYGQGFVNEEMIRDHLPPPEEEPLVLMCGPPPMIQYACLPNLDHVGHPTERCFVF
Experimental: For the enzyme for reducing metHb herein, “substantially free of enzyme activity” means that the enzyme activity is 10%, 5%, 3%, 1%, 0.5%, 0.2%, 0.1%, 0.05% or 0.03% or less, or below detectable limits, of enzyme activity of the enzyme for reducing metHb existing in the Hb solution purified and concentrated from blood derived from humans or domestic animals. The enzyme activity of the enzyme for reducing metHb herein disclosed herein is determined, for example, by the following procedure. Determination of NADH-cytochrome b5 reductase may be carried out according to Beutler, E. (RED CELL METABOLISM: A MANUAL OF BIOCHEMICAL METHOD, Grune &Stratton, Inc., pp. 81-82 (1987)). […]
the enzyme activity is measured by tracing the degree of acceleration by adding sample comprising oxygen. The measurement is carried out by measuring the change (decrease) in absorbance at 340 nm which is the characteristic absorption of the consumed NADH.
The activity of NADH-cytochrome b5 reductase in the above-mentioned purified and concentrated HbCO solution was determined as NADH-ferricyanide reductase activity according to Beutler, E. above. Diluted Hb samples comprising the enzyme to be measured is mixed with a buffer comprising NADH. […] The decrease of difference of absorbance at 340 nm, a characteristic absorption of NADH, per minute was measured to determine activity unit E (IU/gHb). […]

NADPH-flavin reductase = molecular target: T3, NADPH-flavin reductase (Homo sapiens, UniProt P30043); test: NADPH metHb reductase / NADPH diaphorase (NADPH-flavin reductase) activity with methylene blue; settings: 37° C., methylene blue substrate, decrease of absorbance at 340 nm
T3 construct: from tissue; host or cells: human red blood cells (expired donated blood), crude stroma-free haemolysate (SFHb)
T3 sequence (P30043 1-206): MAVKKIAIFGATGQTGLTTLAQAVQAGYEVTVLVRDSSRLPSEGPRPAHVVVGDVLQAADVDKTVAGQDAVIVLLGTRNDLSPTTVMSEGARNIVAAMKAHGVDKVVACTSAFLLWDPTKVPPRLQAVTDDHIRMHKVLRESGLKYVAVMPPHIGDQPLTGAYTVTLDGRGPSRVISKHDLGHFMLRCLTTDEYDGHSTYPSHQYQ
Experimental: Determination of NADPH-flavin reductase activity may be carried out according to Beutler, E. (RED CELL METABOLISM: A MANUAL OF BIOCHEMICAL METHOD, Grune &Stratton, Inc., pp. 79-80 (1987)). The principle of determination of this method is to measure […]. The reaction of reducing methylene bleu (MeBl) to leucomethylene blue (LeukMeBl) as follows:
NADPH+H^++MeBl→NADP^++LeukMeBl
the reaction is known to be slow. The enzyme activity is measured by tracing the degree of acceleration by adding sample comprising oxygen. The measurement is carried out based on the above-mentioned principle by measuring the change (decrease) in absorbance at 340 nm which is the characteristic absorption of the consumed NADPH.
The activity of NADH-cytochrome b5 reductase in the above-mentioned purified and concentrated HbCO solution was determined as NADH-ferricyanide reductase activity according to Beutler, E. above. Diluted Hb samples comprising the enzyme to be measured is mixed with a buffer comprising NADH. […] The decrease of difference of absorbance at 340 nm, a characteristic absorption of NADH, per minute was measured to determine activity unit E (IU/gHb). […] The decrease of difference of absorbance at 340 nm, a characteristic absorption of NADPH, per minute was measured to determine activity unit E (IU/gHb). […]

T1 sequence (P69905 2-142 limits assumed): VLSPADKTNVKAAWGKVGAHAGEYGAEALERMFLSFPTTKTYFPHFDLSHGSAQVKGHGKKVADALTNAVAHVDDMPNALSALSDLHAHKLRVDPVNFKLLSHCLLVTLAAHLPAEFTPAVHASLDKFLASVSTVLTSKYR
T1 sequence (P68871 2-147 limits assumed): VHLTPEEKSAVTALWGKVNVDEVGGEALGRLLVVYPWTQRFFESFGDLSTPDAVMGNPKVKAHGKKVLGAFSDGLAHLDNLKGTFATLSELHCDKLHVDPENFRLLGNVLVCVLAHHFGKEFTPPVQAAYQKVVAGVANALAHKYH

With `NC(=O)C1=CN([C@@H]2O[C@H](COP(=O)(O)OP(=O)(O)OC[C@H]3O[C@@H](n4cnc5c(N)ncnc54)[C@H](O)[C@@H]3O)[C@@H](O)[C@H]2O)C=CC1` [NADH, nicotinamide adenine dinucleotide (NADH)] the “CAT pseudo activity of NADH alone compared with when HbO2 was coexisted” value ([1]; ratio) was 1/10, the “SOD pseudo activity of NADH alone compared with when HbO2 was coexisted” value [2] was 1/10 and the “metHb conversion (%)” value (HbO2 [3]) was 17%. For the same compound, the “increase of metHb-specific absorbance at 630 nm” value (“increase” below) (HbO2 [4]; HbO2 solution + H2O2, 25° C.) was “remarkably suppressed”, the “increase” value (HbO2 [4]; HbO2 solution + NOC7, 25° C.) was “remarkably suppressed” and the “increase” value (HbO2 [4]; HbO2 solution + NaNO2, 25° C.) was “remarkably suppressed”.

In the case of “purified and concentrated Hb: human Hb purified with heat treatment (60° C., 12 hours) and nanofiltration, concentrated to 40 to 42 g/dL”, the “NADH-cytochrome b5 reductase activity (activity unit E)” value [5] is reported as “did not detect any activity”, the “NADH-cytochrome b5 reductase activity (activity unit E)” value ([5]; listed as Hb solution) is reported as “does not show enzymatic activities” and the “NADPH metHb reductase / NADPH diaphorase (NADPH-flavin reductase) activity (activity unit E)” value (NADPH-flavin reductase) is reported as “below 0.01 IU/gHb”. The “NADPH metHb reductase / NADPH diaphorase (NADPH-flavin reductase) activity (activity unit E)” value (NADPH-flavin reductase; listed as Hb solution) was “does not show enzymatic activities” and the Catalase activity ([1]; change of absorbance at 230 nm of H2O2, Example 1) was ≤ 0.03×10^4 IU/gHb.
